Converted amounts (≈) assume the structure as drawn. The source made the active and inactive calls. No cut-off for these calls is given here.

One assay has as its system A549. Nature of the assay: In vitro cytotoxic activity was determined against lung carcinoma (A549) cell line. Format: functional. Particulars: Homo sapiens, read-out: ED50 (the source's name).
Assay [1] has as its system MCF7. Nature of the assay: In vitro cytotoxic activity against MCF-7 (human breast cancer) cell line. Format: functional. The settings on record: read-out: ED50 (the source's name).
In a further assay the test system is SAOS-2. In words: In vitro cytotoxic activity was determined against osteosarcoma (SaOS-2) cell line. The class given is functional. The settings on record: Homo sapiens, read-out: ED50 (the source's name).
Another assay concerns 1A9. Nature of the assay: In vitro cytotoxic activity was determined against ovarian cancer (1A9) cell line. The class given is functional. The settings on record: Homo sapiens, read-out: ED50 (the source's name).
In assay [2] the test system is CAKI-1. In words: In vitro cytotoxic activity was determined against renal cancer (CAKI-1) cell line. Particulars: Homo sapiens, read-out: ED50 (the source's name). The class given is functional.
Assay [3] deals with KB. In words: In vitro cytotoxic activity was determined against epidermoid carcinoma of the nasopharynx (KB) cell line. The class given is functional. The settings on record: Homo sapiens, read-out: ED50 (the source's name).
A further assay relates to SK-MEL-2. In words: In vitro cytotoxic activity was determined against melanoma cancer (SK-MEL-2) cell line. The class given is functional. The settings on record: Homo sapiens, read-out: ED50 (the source's name).
The subject of assay [4] is HCT-8. Nature of the assay: In vitro cytotoxic activity was determined against ileocecal carcinoma (HCT-8) cell line; Not active. The class given is functional, cell-based. Particulars: Homo sapiens.
Assay [5] deals with CAKI-1. Nature of the assay: In vitro cytotoxic activity was determined against renal cancer (CAKI-1) cell line; Not active. The class given is functional, cell-based. Particulars: Homo sapiens.
The test system of assay [6] is MCF7. Nature of the assay: In vitro cytotoxic activity was determined against breast cancer (MCF-7) cell line; Not active. Particulars: Homo sapiens. Format: functional, cell-based.
For the next assay, the system named is HOS. Nature of the assay: In vitro cytotoxic activity was determined against osteosarcoma ( HOS) cell line. Format: functional. Particulars: Homo sapiens, read-out: ED50 (the source's name).
The subject of assay [7] is KB. In words: In vitro cytotoxic activity was determined against epidermoid carcinoma of the nasopharynx (KB) cell line; Not active. The settings on record: Homo sapiens. Format: functional, cell-based.
Assay [8] relates to KB. Nature of the assay: In vitro cytotoxic activity was determined against drug resistant tumor cell line KB-VIN (expressing P-glycoprotein). Particulars: Homo sapiens, read-out: ED50 (the source's name). The class given is functional.
In assay [9] the test system is KB. Nature of the assay: In vitro cytotoxic activity was determined against drug resistant tumor cell line KB-CPT (pleotrophic mechanism including level of topoisomerase I). Format: functional. The settings on record: Homo sapiens, read-out: ED50 (the source's name).
The test system of assay [10] is U-87 MG. In words: In vitro cytotoxic activity against U-87-MG (glioblastoma) cell line. Format: functional, U-87MG ATCC. Particulars: Homo sapiens, read-out: ED50 (the source's name).
The subject of another assay is HEL. Nature of the assay: In vitro cytotoxic activity was determined against embryonic lung fibroblast (HEL) cell line. Format: functional. Particulars: Homo sapiens, read-out: ED50 (the source's name).
Assay [11] has as its system KB. Nature of the assay: In vitro cytotoxic activity was determined against drug resistant tumor cell line KB-7d (pleotrophic resistance including MRP multidrug resistant protein). The class given is functional. Particulars: Homo sapiens, read-out: ED50 (the source's name).
Assay [12] deals with U-87 MG. In words: In vitro cytotoxic activity was determined against glioblastoma (U-87-MG) cell line; Not active. The settings on record: Homo sapiens; U-87MG ATCC. Format: functional, cell-based.
For assay [13], the system named is HCT-8. Nature of the assay: In vitro cytotoxic activity was determined against ileocecal carcinoma (HCT-8) cell line. Format: functional. The settings on record: Homo sapiens, read-out: ED50 (the source's name).

In the case of `Cc1nccc2c1[nH]c1cc(OC(=O)C34CCC(C)(C(=O)O3)C4(C)C)ccc12` (stereo not drawn), the EC50 with A549 is 17 µg/mL (≈ 44.9 µM); in the assay with MCF7 [1] it was 20 µg/mL (≈ 52.9 µM); in the assay with SAOS-2 it was over 20 µg/mL; in the assay on 1A9, 19.5 µg/mL (≈ 51.5 µM); with CAKI-1 [2], over 20 µg/mL; in the assay with KB [3], over 10 µg/mL. Further, the EC50 in the assay on SK-MEL-2 is over 20 µg/mL.

Take `CCCCCCCCCCCCCCCCOc1ccc2c(c1)[nH]c1c(C)nccc12`: the ED50 entry in the assay on HCT-8 [4], with CAKI-1 [5], in the assay with MCF7 [6] and in the assay on KB [7] was “inactive” throughout. The EC50 in the assay on A549 worked out at 5 µg/mL (≈ 11.8 µM); in the assay on 1A9, 8 µg/mL (≈ 18.9 µM); in the assay with HOS, 5 µg/mL (≈ 11.8 µM).

For `COc1ccc2c(c1)[nH]c1c(C)nccc12` [HARMINE], the EC50 with A549 worked out at 2.4 µg/mL (≈ 11.3 µM); in the assay on MCF7 [1] it was 10.5 µg/mL (≈ 49.5 µM); in the assay with KB [8], 2.5 µg/mL (≈ 11.8 µM); with KB [9] it was 4.3 µg/mL (≈ 20.3 µM); in the assay with U-87 MG [10], 14.5 µg/mL (≈ 68.3 µM); in the assay with 1A9, 1.6 µg/mL (≈ 7.54 µM). Further, the EC50 came to 1.9 µg/mL (≈ 8.95 µM) with CAKI-1 [2]; 2.2 µg/mL (≈ 10.4 µM) with KB [3]; 1.9 µg/mL (≈ 8.95 µM) in the assay on HEL; 18.5 µg/mL (≈ 87.2 µM) in the assay on SK-MEL-2; 3.7 µg/mL (≈ 17.4 µM) in the assay with KB [11].

As for `Cc1cc(O)n2c(n1)nc1ccccc12`, the EC50 with A549, with MCF7 [1], with SAOS-2, with 1A9, in the assay on CAKI-1 [2] and with KB [3] was over 10 µg/mL throughout. Besides, in the assay with SK-MEL-2, the EC50 is over 10 µg/mL. Moreover, in the assay on U-87 MG [12], the ED50 result was “inactive”.

For `COS(=O)(=O)O.Cc1nccc2c1[nH]c1ccccc12`, the EC50 in the assay with A549 was over 20 µg/mL; in the assay on 1A9, over 20 µg/mL; in the assay on CAKI-1 [2], over 20 µg/mL; in the assay on KB [3], 10.5 µg/mL; in the assay with HEL, over 20 µg/mL.

As for `COc1ccc2c3ccn(C)c(C)c-3nc2c1`, the EC50 with A549 worked out at 2.7 µg/mL (≈ 11.9 µM); in the assay on MCF7 [1], 5.6 µg/mL (≈ 24.7 µM); in the assay on SAOS-2, 9.6 µg/mL (≈ 42.4 µM); in the assay on U-87 MG [10] it was 9 µg/mL (≈ 39.8 µM); with 1A9, 7 µg/mL (≈ 30.9 µM); in the assay with CAKI-1 [2], 7.8 µg/mL (≈ 34.5 µM). Moreover, the EC50 in the assay with KB [3] came out at 6.4 µg/mL (≈ 28.3 µM); in the assay on SK-MEL-2, 10 µg/mL (≈ 44.2 µM).

Regarding `Br.COc1ccc2c3c([nH]c2c1)C(C)=NCC3`, the EC50 in the assay with A549 is 9.8 µg/mL; in the assay on MCF7 [1], 10 µg/mL; with SAOS-2, 6.8 µg/mL; in the assay on U-87 MG [10], 9.8 µg/mL; in the assay on 1A9 it was over 10 µg/mL; in the assay with CAKI-1 [2], over 10 µg/mL. In addition, the EC50 with KB [3] is 9.7 µg/mL; in the assay with SK-MEL-2, over 10 µg/mL.

`Cc1nccc2c1[nH]c1ccccc12` [HARMAN]: the EC50 in the assay with A549 is 9.3 µg/mL (≈ 51 µM); with MCF7 [1], 19 µg/mL (≈ 104 µM); in the assay with KB [8], 17.5 µg/mL (≈ 96 µM); with KB [9], 15 µg/mL (≈ 82.3 µM); in the assay on U-87 MG [10] it was 19 µg/mL (≈ 104 µM); with 1A9, 6.1 µg/mL (≈ 33.5 µM). The EC50 in the assay with CAKI-1 [2] is 8 µg/mL (≈ 43.9 µM); with KB [3], 8.9 µg/mL (≈ 48.8 µM); in the assay on HEL, 9.8 µg/mL (≈ 53.8 µM); in the assay with SK-MEL-2, over 20 µg/mL; in the assay on KB [11], 16.5 µg/mL (≈ 90.5 µM).

Regarding `CCCCCCCCC1NC(C(=O)O)Cc2c1[nH]c1cc(OC)ccc21` (stereo not drawn), the EC50 with A549, with 1A9, in the assay on CAKI-1 [2] and with KB [3] was over 20 µg/mL in each case.

Regarding `COc1ccc2c(c1)[nH]c1c(/C=C/c3ccc([N+](=O)[O-])cc3)nccc12`, the EC50 was found to be 0.9 µg/mL (≈ 2.61 µM) with A549; 1.2 µg/mL (≈ 3.47 µM) in the assay with MCF7 [1]; 0.9 µg/mL (≈ 2.61 µM) in the assay on SAOS-2; 1.2 µg/mL (≈ 3.47 µM) in the assay on U-87 MG [10]; 0.3 µg/mL (≈ 0.869 µM) with 1A9; 7 µg/mL (≈ 20.3 µM) in the assay with CAKI-1 [2]. For the same compound, the figures for the EC50 in the assay with KB [3] and in the assay on SK-MEL-2 were 0.5 µg/mL (≈ 1.45 µM) and 1 µg/mL (≈ 2.9 µM), respectively.

In the case of `CCCCCCCCCCOc1ccc2c(c1)[nH]c1c(C)nccc12`, the EC50 worked out at 1.2 µg/mL (≈ 3.55 µM) in the assay on A549; 3.8 µg/mL (≈ 11.2 µM) with MCF7 [1]; 5.4 µg/mL (≈ 16 µM) in the assay on U-87 MG [10]; 4.1 µg/mL (≈ 12.1 µM) with HCT-8 [13]; 1.4 µg/mL (≈ 4.14 µM) with 1A9; 5 µg/mL (≈ 14.8 µM) in the assay with CAKI-1 [2]. Further, the results for the EC50 in the assay on HOS and in the assay on KB [3] were 6.7 µg/mL (≈ 19.8 µM) and 2 µg/mL (≈ 5.91 µM), respectively.

As for `Cc1[nH]ccc2c1[nH]c1cc(=O)ccc12` [HARMOL], the EC50 with A549 turned out to be 6.5 µg/mL (≈ 32.8 µM); in the assay on MCF7 [1] it was 9.2 µg/mL (≈ 46.4 µM); in the assay with U-87 MG [10], 4.2 µg/mL (≈ 21.2 µM); in the assay with 1A9, 3.8 µg/mL (≈ 19.2 µM); in the assay with CAKI-1 [2], 9.2 µg/mL (≈ 46.4 µM); with KB [3], 4.4 µg/mL (≈ 22.2 µM).

Take `CCCCn1c2cc(OC)ccc2c2ccnc(C)c21`: the EC50 with A549 was 6 µg/mL (≈ 22.4 µM); with MCF7 [1], 9.5 µg/mL (≈ 35.4 µM); in the assay on U-87 MG [10] it was 12.3 µg/mL (≈ 45.8 µM); in the assay with HCT-8 [13] it was over 20 µg/mL; in the assay with 1A9 it was 2.2 µg/mL (≈ 8.2 µM); with CAKI-1 [2], 11 µg/mL (≈ 41 µM). Further, the EC50 in the assay on KB [3] came out at 7.8 µg/mL (≈ 29.1 µM).

The record behind these values is ChEMBL document CHEMBL1131893, “Antitumor agents 201. Cytotoxicity of harmine and beta-carboline analogs” (1999).
